Literature values as cited in patent US20220071922A1, “DELIVERY OF HEALTH BENEFITS THROUGH COMPONENT FORMULATION” (Clear Lake Research, LLC, priority 2018, published 2022).

Columns and labels:
CB2 receptors = CB2 receptors (Homo sapiens, UniProt P34972); details: estimated; times the affinity of CBD
[1] = applied topically
[2] = phytocannabinoids interact with oxygen; without nitrogen overlay

Chain of CB2 receptors (P34972 whole entry): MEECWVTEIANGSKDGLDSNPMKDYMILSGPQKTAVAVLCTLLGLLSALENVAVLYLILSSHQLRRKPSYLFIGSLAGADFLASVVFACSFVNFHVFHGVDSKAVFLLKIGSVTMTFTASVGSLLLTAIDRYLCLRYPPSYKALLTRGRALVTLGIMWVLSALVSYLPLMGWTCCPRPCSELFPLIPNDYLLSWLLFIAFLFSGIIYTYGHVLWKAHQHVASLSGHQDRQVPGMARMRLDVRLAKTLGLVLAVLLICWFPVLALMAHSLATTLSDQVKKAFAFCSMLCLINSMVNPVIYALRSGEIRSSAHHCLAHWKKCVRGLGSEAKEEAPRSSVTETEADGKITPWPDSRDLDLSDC

Structure (SMILES)	affinity relative to CBD (CB2 receptors)	time to significant pain relief impact [1]	shelf life [2]
CCCCC/C=C\C/C=C\CCCCCCCC(=O)OC(CO)CO [2-Lineoleoyl-glycerol]	~1,000 times	–	–
CCCCCCCCCCCCCCCC(=O)OC(CO)CO [2-Palmitolyl-glycerol]	~1,000 times	–	–
C=C(C)[C@@H]1CCC(C)=C[C@H]1c1c(O)cc(CCCCC)cc1O [CBD, cannabidiol]	–	about 30 minutes	about six
